Row | Structure (SMILES) | melting point [°C]
1 | CCCN(CCC)C(=O)c1cc(C(=O)N[C@@H](Cc2ccccc2)[C@H](O)CNCc2cccc(OC)c2)cc(-c2ccc(OC)cc2)c1.Cl | 205 to 209
2 | CCCN(CCC)C(=O)c1cc(C(=O)N[C@@H](Cc2cc(F)cc(F)c2)[C@H](O)CNCc2cccc(OC)c2)cc(-c2ccccc2)c1.Cl | 230 to 233
3 | CCCN(CCC)C(=O)c1cc(C(=O)N[C@@H](Cc2ccccc2)[C@H](O)CNCc2cccc(OC)c2)cc(-c2ccccc2)c1.Cl | 214 to 219
4 | CCCN(CCC)C(=O)c1cc(C(=O)N[C@@H](Cc2ccccc2)[C@H](O)CNCc2cccc(OC)c2)cc(-c2ccsc2)c1.Cl | 199 to 201

Source: US7498436B2, “Substituted hydroxyethylamines” (Pharmacia & Upjohn Company LLC, priority 2002, dated 2009)
